Patent US20220348590A1, “CYCLOOXYGENASE-2 INHIBITORS AND USES THEREOF” (The Board Institute, Inc., priority 2019, published 2022)
Where two headings read alike, the source gives them in different places.

Target: T1, human recombinant COX2 (hCOX2) (UniProt P35354)
T1 sequence (P35354 1-604): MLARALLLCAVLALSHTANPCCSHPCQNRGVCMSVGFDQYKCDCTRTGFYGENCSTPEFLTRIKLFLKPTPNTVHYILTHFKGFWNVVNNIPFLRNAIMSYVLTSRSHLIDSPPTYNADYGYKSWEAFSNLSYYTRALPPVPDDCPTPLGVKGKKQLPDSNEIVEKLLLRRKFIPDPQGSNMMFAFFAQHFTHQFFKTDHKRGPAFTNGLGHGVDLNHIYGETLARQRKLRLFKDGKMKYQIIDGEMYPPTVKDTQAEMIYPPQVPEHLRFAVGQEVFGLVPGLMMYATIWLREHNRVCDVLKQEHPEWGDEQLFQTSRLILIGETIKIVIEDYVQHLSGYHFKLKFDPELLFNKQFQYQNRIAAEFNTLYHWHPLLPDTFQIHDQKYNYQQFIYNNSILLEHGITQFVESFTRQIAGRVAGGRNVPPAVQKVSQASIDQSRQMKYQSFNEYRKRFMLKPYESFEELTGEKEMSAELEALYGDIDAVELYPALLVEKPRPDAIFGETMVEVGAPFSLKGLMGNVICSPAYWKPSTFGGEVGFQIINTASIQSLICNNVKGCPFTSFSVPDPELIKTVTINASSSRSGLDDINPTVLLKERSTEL
Assay: LCMS-based COX2 enzymatic inhibition assay (PGE2 quantification)
Assay type: biochemical
Set-up: COX2 2 minutes pge2/pge2d4 area ratio Avg; other: 2 minutes; readout pge2/pge2d4 area ratio; average; COX2 2 minutes pge2/pge2d4 area ratio Avg; LLE; average LLE; COX2 2 minutes pge2 area (counts) Avg; readout pge2 area (counts); other: 2 min; "ovine COX2 (oCOX2), human recombinant COX2 (hCOX2)"
Details: for COX2 2 minutes pge2/pge2d4 area ratio Avg. LLE / COX2 2 minutes pge2 area (counts) Avg. LLE / COX2 10 minutes pge2 area (counts) Avg. LLE: average LLE; for IC50: average
In short: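 PGE2 formed from arachidonic acid (final 5 μM, 2 min) was measured by LC-MS-MS against DMSO controls. Enzyme (oCOX-1 0.1 μg or hCOX2 0.2 μg) with hematin/epinephrine cofactors at pH 8.0 was given 10 min at 37 °C with compound first. Twelve-point curves run three times gave IC50.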

[1] = 2 minutes, readout pge2/pge2d4 area ratio
[2] = 2 minutes, readout pge2 area (counts)
[3] = read-out: COX2 2 minutes pge2/pge2d4 area ratio Avg. IC50 (microM), 2 minutes, readout pge2/pge2d4 area ratio
[4] = 2 minutes, readout pge2 area (counts), read-out: COX2 2 minutes pge2 area (counts) Avg. IC50
[5] = 2 minutes, readout pge2/pge2d4 area ratio, read-out: COX2 2 minutes pge2/pge2d4 area ratio Avg. IC50
[6] = 10 minutes, readout pge2 area (counts)
[7] = 10 minutes, readout pge2 area (counts), read-out: COX2 10 minutes pge2 area (counts) Avg. IC50

SMILES | COX2 2 minutes pge2/pge2d4 area ratio Avg. LLE [1] | COX2 2 minutes pge2 area (counts) Avg. LLE [2] | IC50 [3] [µM] | also measured
CS(=O)(=O)c1ccc(-c2cncc(OCC3CC3)n2)cc1 [Compound 273] | 3.734 | 3.734 | 5.2 | –
CS(=O)(=O)c1ccc(-c2cncc(OC[C@@H]3CCCO3)n2)cc1 [Compound 275] | 4.054 | 4.054 | 5.2 | –
Cc1coc(C(=O)Nc2cccc(-c3ccc(S(C)(=O)=O)cc3)n2)c1 [Compound 276] | 2.554 | 2.659 | 5.2 | IC50 [4]: 4.08 µM
CS(=O)(=O)c1ccc(-c2cc(NCc3ccco3)ncn2)cc1 [Compound 277] | – | – | – | IC50 [5]: 5.2 µM
CN(C)c1cncc(-c2ccc(S(C)(=O)=O)cc2)n1 [Compound 278] | 4.524 | 4.672 | 5.2 | IC50 [4]: 3.7 µM; COX2 10 minutes pge2 area (counts) Avg. LLE [6]: 4.674; IC50 [7]: 3.68 µM
CS(=O)(=O)c1ccc(-c2cncc(NCc3ncc[nH]3)n2)cc1 [Compound 279] | 4.334 | 4.334 | 5.2 | –
CCCCOc1cncc(-c2ccc(S(C)(=O)=O)cc2)n1 [Compound 280] | 3.204 | – | 5.2 | COX2 10 minutes pge2 area (counts) Avg. LLE [6]: 4.508; IC50 [7]: 0.258 µM
CS(=O)(=O)c1ccc(-c2cccc(C(=O)Nc3cccs3)n2)cc1 [Compound 281] | 2.264 | – | – | IC50 [5]: 5.2 µM
CSc1ccc(-c2cccc(NCc3ccco3)n2)cc1 [Compound 282] | 1.004 | 1.004 | 5.2 | –
CS(=O)(=O)c1ccc(-c2ccnc(NCc3ccco3)c2)cc1 [Compound 283] | – | – | 5.2 | –
CS(=O)(=O)c1ccc(-c2cccc([C@H](O)Cc3cccs3)n2)cc1 [Compound 284] | 2.424 | 2.424 | 5.2 | –
Cc1cccc(COc2cncc(-c3ccc(S(C)(=O)=O)cc3)n2)c1 [Compound 285] | 2.514 | 2.514 | 5.2 | –
CS(=O)(=O)c1ccc(-c2cncc(N3CCOCC3)n2)cc1 [Compound 286] | 5.044 | – | 5.2 | COX2 10 minutes pge2 area (counts) Avg. LLE [6]: 5.772; IC50 [7]: 0.974 µM
CN1CCN(c2cncc(-c3ccc(S(C)(=O)=O)cc3)n2)CC1 [Compound 287] | 5.044 | 5.044 | 5.2 | COX2 10 minutes pge2 area (counts) Avg. LLE [6]: 5.574; IC50 [7]: 1.54 µM
CS(=O)(=O)c1ccc(-c2cnc3cn(Cc4cccs4)nc3n2)cc1 [Compound 288] | 2.844 | 2.844 | 5.2 | –
CS(=O)(=O)c1ccc(-c2cncc(OCc3nccs3)c2)cc1 [Compound 289] | 2.234 | 2.234 | 5.2 | –
CS(=O)(=O)c1ccc(-c2ccnc(NCc3ccoc3)c2)cc1 [Compound 290] | – | – | 5.2 | –
COc1ncc(NCc2cocn2)nc1-c1ccc(S(C)(=O)=O)cc1 [Compound 291] | 3.954 | 3.954 | 5.2 | –
CS(=O)(=O)c1ccc(-c2cccc(C[C@@H](O)c3cccs3)n2)cc1 [Compound 292] | 2.424 | – | – | IC50 [5]: 5.2 µM
CC(C)COc1cncc(-c2ccc(S(C)(=O)=O)cc2)n1 [Compound 293] | 3.394 | 3.394 | 5.2 | COX2 10 minutes pge2 area (counts) Avg. LLE [6]: 3.394
CS(=O)(=O)c1ccc(-c2cncc(OCc3ccc(F)cc3)n2)cc1 [Compound 294] | – | 2.694 | 5.2 | –
CSc1ccc(-c2cccc(NCc3ccoc3)n2)cc1 [Compound 295] | – | – | 5.2 | –
CC(C)(C)OC(=O)N(c1ccoc1)c1cccc(-c2ccc(S(C)(=O)=O)cc2)n1 [Compound 296] | – | – | 5.2 | –
COc1cc(S(C)(=O)=O)ccc1-c1cccc(NCc2ccoc2)n1 [Compound 297] | – | – | 5.2 | –

SMILES | COX2 2 minutes pge2/pge2d4 area ratio Avg. LLE [1] | COX2 2 minutes pge2 area (counts) Avg. LLE [2] | IC50 [3] [µM] | also measured
CN1CCC(Nc2cncc(-c3ccc(S(C)(=O)=O)cc3)n2)CC1 [Compound 298] | – | – | 5.2 | –
COc1cncc(-c2ccc(S(C)(=O)=O)cc2)n1 [Compound 299] | – | – | 5.2 | COX2 10 minutes pge2 area (counts) Avg. LLE [6]: 5.551; IC50 [7]: 0.489 µM
CS(=O)(=O)c1ccc(-c2cccc(C[C@H](O)c3cccs3)n2)cc1 [Compound 300] | – | – | 5.2 | –
CS(=O)(=O)c1ccc(-c2cc3c(cn2)cnn3Cc2cccs2)cc1 [Compound 301] | – | – | 5.2 | –
CS(=O)(=O)c1ccc(-c2cccc(NC(=O)c3cccs3)n2)cc1 [Compound 302] | – | – | 5.2 | –
CS(=O)(=O)c1ccc(-c2cncc([S+]([O-])Cc3cccs3)n2)cc1 (stereo not drawn) [Compound 303] | – | – | 5.2 | –
CS(=O)(=O)c1ccc(-c2cncc(N3Cc4ccncc4C3)n2)cc1 [Compound 304] | – | – | 5.2 | –
CS(=O)(=O)c1ccc(-c2nc(NCc3cccs3)cnc2C(=O)O)cc1 [Compound 305] | – | – | 5.2 | –
CN1CC[C@@H](CNc2cncc(-c3ccc(S(C)(=O)=O)cc3)n2)C1 [Compound 306] | – | 4.594 | 5.2 | –
CN1CC[C@H](CNc2cncc(-c3ccc(S(C)(=O)=O)cc3)n2)C1 [Compound 307] | – | – | 5.2 | –
CS(=O)(=O)c1ccc(-c2ccc3c(ncn3Cc3cccs3)n2)cc1 [Compound 308] | – | – | 5.2 | –
Cc1ccc(COc2cncc(-c3ccc(S(C)(=O)=O)cc3)n2)cc1 [Compound 309] | – | 2.514 | 5.2 | –
CS(=O)(=O)c1ccc(Oc2cccc(NCc3cccs3)n2)cc1 [Compound 310] | – | – | 5.2 | –
CS(=O)(=O)c1ccc(-n2ccc3ccc(NC(=O)c4cccs4)nc32)cc1 [Compound 311] | – | – | 5.2 | –
CS(=O)(=O)c1ccc(-c2cncc(OCCc3cccs3)n2)cc1 [Compound 312] | – | 2.744 | 5.2 | –
CS(=O)(=O)c1ccc(-c2cncc(N3Cc4ccccc4C3)n2)cc1 [Compound 313] | – | – | 5.2 | –
CS(=O)(=O)c1ccc(-c2cc(OCc3cccs3)ccn2)cc1 [Compound 315] | – | – | 5.2 | –
CS(=O)(=O)c1ccc(-c2cnc(O)c(NCc3cccs3)n2)cc1 [Compound 316] | – | 3.634 | 5.2 | –
CS(=O)(=O)c1ccc(-c2cnc3cn(Cc4cccs4)nc3c2)cc1 [Compound 317] | – | – | 5.2 | –
CS(=O)(=O)c1ccc(-c2cc(OCc3cccs3)ncn2)cc1 [Compound 318] | – | – | 5.2 | –
CS(=O)(=O)c1ccc(-c2cncc(N3CCC4(CCCC4)CC3)n2)cc1 [Compound 319] | – | – | 5.2 | –
CS(=O)(=O)c1ccc(-c2cncc(C#Cc3cccs3)n2)cc1 [Compound 320] | – | – | 5.2 | –
CS(=O)(=O)c1ccc(-c2cnnc(OCc3cccs3)c2)cc1 [Compound 321] | – | – | 5.2 | –
CS(=O)(=O)c1ccc(-c2cc(OCc3ccco3)cnn2)cc1 [Compound 323] | – | – | 5.2 | –
